Measurements as given in the NIST ThermoML archive (doi:10.1016/j.tca.2010.10.002).
± gives the expanded uncertainty stated by the source. Values belong to the molecule of their own block, whether it stands above or below them.

Conditions: Liquid, DSC

vapor or sublimation pressure (502.27 K): 5.333 ± 0.53 kPa
vapor or sublimation pressure (515.13 K): 9.333 ± 0.93 kPa
SMILES: CCCCCCCCCCCCCCCC(=O)OCC [ethyl hexadecanoate]

vapor or sublimation pressure (537.69 K): 9.333 ± 0.93 kPa
SMILES: CCCCC/C=C\C/C=C\CCCCCCCC(=O)OCC [ethyl linoleate]

vapor or sublimation pressure (514.61 K): 5.333 ± 0.53 kPa
vapor or sublimation pressure (536.83 K): 9.333 ± 0.94 kPa
SMILES: CCCCCCCC/C=C\CCCCCCCC(=O)OCC [ethyl (Z)-9-octadeceneoate]

Second part, the molecule before the results:

SMILES: CCCCCCCCCCCCCCCC(=O)OC [methyl hexadecanoate]
vapor or sublimation pressure (486.57 K): 4 ± 0.4 kPa

SMILES: CCCCCCCCCCCCCC(=O)OC [methyl tetradecanoate]
vapor or sublimation pressure (459.62 K): 4 ± 0.4 kPa

SMILES: CCCCCCCCCCCCCCCCCC(=O)OCC [ethyl octadecanoate]
vapor or sublimation pressure (520.56 K): 5.333 ± 0.53 kPa
